Data as given in patent publication US20070293399A1, “SUBSTITUTED DIAMINO-1,3,5-TRIAZINES, PROCESSES FOR THEIR PREPARATION AND THEIR USE AS HERBICIDES AND CROP GROWTH REGULATORS” (Bayer CropScience AG, priority 2006, published 2007).

system: Stellaria media, Lolium multiflorum, Amaranthus retroflexus, Sinapis alba, Avena sativa and Setaria viridis; test: Pre-emergence herbicidal action (greenhouse pot test); assay type: in vivo; settings: application rate of 1 kg or less of active substance per hectare; scored visually after 3 to 4 weeks in comparison to untreated controls
Source text: Seeds or rhizome pieces of mono- and dicotyledonous weed plants were placed in sandy loam in plastic pots and covered with soil. The inventive compounds, which have been formulated in the form of wettable powders or emulsion concentrates, were then applied to the surface of the covering soil as an aqueous suspension or emulsion in different dosages with an application rate of from 600 to 800 l/ha of water (converted).

SMILES | herbicidal action against harmful plants in the pre-emergence method
C[C@@H](F)c1nc(NC(=O)C2CC2)nc(N[C@@H]2CCCc3ccccc32)n1 [Compound 2.68] | very good herbicidal action
Cc1ccc2c(c1)C(Nc1ncnc(NC(=O)C3CC3)n1)C(C)C2 (stereo not shown) [Compound 2.75] | very good herbicidal action
Cc1ccc2c(c1)C(Nc1nc(NC(=S)NC(C)(C)C)nc(C(C)F)n1)C(C)C2 (stereo not shown) [Compound 2.76] | very good herbicidal action
Cc1ccc2c(c1)C(Nc1nc(NC(=O)NC(C)C)nc(C(C)F)n1)C(C)C2 (stereo not shown) [Compound 2.78] | very good herbicidal action
CCCCNC(=O)Nc1nc(NC2c3cc(C)ccc3CC2C)nc(C(C)F)n1 (stereo not shown) [Compound 2.87] | very good herbicidal action
CCCCCCNC(=O)Nc1nc(NC2c3cc(C)ccc3CC2C)nc(C(C)F)n1 (stereo not shown) [Compound 2.88] | very good herbicidal action
Cc1ccc2c(c1)C(Nc1nc(NC(=O)NC3CCCC3)nc(C(C)F)n1)C(C)C2 (stereo not shown) [Compound 2.101] | very good herbicidal action
Cc1ccc2c(c1)C(Nc1nc(NC(=O)NCc3ccccc3)nc(C(C)F)n1)C(C)C2 (stereo not shown) [Compound 2.103] | very good herbicidal action
COCCNC(=O)Nc1nc(NC2c3cc(C)ccc3CC2C)nc(C(C)F)n1 (stereo not shown) [Compound 2.104] | very good herbicidal action
COC(C)(C)CNC(=O)Nc1nc(NC2c3cc(C)ccc3CC2C)nc(C(C)F)n1 (stereo not shown) [Compound 2.105] | very good herbicidal action
CCOC(CNC(=O)Nc1nc(NC2c3cc(C)ccc3CC2C)nc(C(C)F)n1)OCC (stereo not shown) [Compound 2.106] | very good herbicidal action
CCOC(=O)CNC(=O)Nc1nc(NC2c3cc(C)ccc3CC2C)nc(C(C)F)n1 (stereo not shown) [Compound 2.111] | very good herbicidal action
COC(C)(C)CNC(=S)Nc1nc(NC2c3cc(C)ccc3CC2C)nc(C(C)F)n1 (stereo not shown) [Compound 2.114] | very good herbicidal action
Cc1ccc2c(c1)C(Nc1nc(NC(=O)Nc3ccccc3)nc(C(C)F)n1)C(C)C2 (stereo not shown) [Compound 2.115] | very good herbicidal action
Cc1ccc(NC(=O)Nc2nc(NC3c4cc(C)ccc4CC3C)nc(C(C)F)n2)cc1 (stereo not shown) [Compound 2.116] | very good herbicidal action
Cc1ccc2c(c1)C(Nc1nc(NC(=O)Nc3ccc(F)cc3)nc(C(C)F)n1)C(C)C2 (stereo not shown) [Compound 2.117] | very good herbicidal action
COc1ccc(NC(=O)Nc2nc(NC3c4cc(C)ccc4CC3C)nc(C(C)F)n2)cc1 (stereo not shown) [Compound 2.122] | very good herbicidal action
Cc1ccc2c(c1)C(Nc1nc(NC(=S)Nc3ccccc3)nc(C(C)F)n1)C(C)C2 (stereo not shown) [Compound 2.127] | very good herbicidal action

SMILES | herbicidal action against harmful plants in the pre-emergence method
Cc1ccc(NC(=S)Nc2nc(NC3c4cc(C)ccc4CC3C)nc(C(C)F)n2)cc1 (stereo not shown) [Compound 2.128] | very good herbicidal action
Cc1ccc2c(c1)C(Nc1nc(NC(=S)Nc3ccc(F)cc3)nc(C(C)F)n1)C(C)C2 (stereo not shown) [Compound 2.129] | very good herbicidal action
COc1ccc(NC(=S)Nc2nc(NC3c4cc(C)ccc4CC3C)nc(C(C)F)n2)cc1 (stereo not shown) [Compound 2.130] | very good herbicidal action
Cc1ccc2c(c1)C(Nc1nc(NC(=S)NCc3ccccc3)nc(C(C)F)n1)C(C)C2 (stereo not shown) [Compound 2.131] | very good herbicidal action
CCCCNC(=S)Nc1nc(N[C@H]2c3cc(C)ccc3C[C@@H]2C)nc([C@@H](C)F)n1 [Compound 2.132] | very good herbicidal action
CCNC(=S)Nc1nc(N[C@H]2c3cc(C)ccc3C[C@@H]2C)nc([C@@H](C)F)n1 [Compound 2.133] | very good herbicidal action
Cc1ccc2c(c1)[C@H](Nc1nc(NC(=S)NCCc3ccc(Cl)cc3)nc([C@@H](C)F)n1)[C@@H](C)C2 [Compound 2.134] | very good herbicidal action
Cc1ccc2c(c1)[C@H](Nc1nc(NC(=S)NCc3ccco3)nc([C@@H](C)F)n1)[C@@H](C)C2 [Compound 2.138] | very good herbicidal action
Cc1ccc2c(c1)[C@H](Nc1nc(NC(=S)NC3CCCCC3)nc([C@@H](C)F)n1)[C@@H](C)C2 [Compound 2.139] | very good herbicidal action
COc1cccc(NC(=O)Nc2nc(N[C@H]3c4cc(C)ccc4C[C@@H]3C)nc([C@@H](C)F)n2)c1 [Compound 2.140] | very good herbicidal action
CC(=O)Nc1nc(N[C@H]2c3cc(C)ccc3C[C@@H]2C)nc(C(F)F)n1 [Compound 2.149] | very good herbicidal action
CCC(=O)Nc1nc(N[C@H]2c3cc(C)ccc3C[C@@H]2C)nc(C(F)F)n1 [Compound 2.150] | very good herbicidal action
Cc1ccc2c(c1)[C@H](Nc1nc(NC(=O)C(C)(C)C)nc(C(F)F)n1)[C@@H](C)C2 [Compound 2.151] | very good herbicidal action
Cc1ccc2c(c1)[C@H](Nc1nc(N=CN(C)C)nc([C@@H](C)F)n1)[C@@H](C)C2 [Compound 2.153] | very good herbicidal action
C[C@@H](F)c1nc(N=CN(C)C)nc(N[C@@H]2CCCc3ccccc32)n1 [Compound 2.154] | very good herbicidal action
Cc1ccc2c(c1)[C@H](Nc1ncnc(N=CN(C)C)n1)[C@@H](C)C2 [Compound 2.155] | very good herbicidal action
CC(=Nc1nc(N[C@H]2c3cc(C)ccc3C[C@@H]2C)nc([C@@H](C)F)n1)N(C)C [Compound 2.156] | very good herbicidal action

system: Sinapis alba, Echinochloa crus-galli, Lolium multiflorum, Stellaria media, Cyperus iria, Amaranthus retroflexus, Setaria viridis, Avena sativa, Lamium …; test: Post-emergence herbicidal action (greenhouse pot test); assay type: in vivo; settings: application rate of 1 kg and less of active substance per hectare; treated at three-leaf stage; scored visually after approx. 3 to 4 weeks in comparison to untreated controls
Experimental: Seeds or rhizome pieces of mono- and dicotyledonous weeds were placed in sandy loam in plastic pots, covered with soil and grown in a greenhouse under good growth conditions. Three weeks after the sowing, the test plants were treated at the three-leaf stage. The inventive compounds formulated as spray powders or as emulsion concentrates were sprayed onto the green plant parts in various dosages with an application rate of from 600 to 800 l/ha of water (converted). After the test plants had been left to stand in the greenhouse under optimal growth conditions for approx. 3 to 4 weeks, the action of the preparations was scored visually in comparison to untreated controls. The inventive compositions also had good post-emergence herbicidal activity against a wide spectrum of economically important gramineous and broadleaf weeds.

SMILES | herbicidal action against harmful plants in the post-emergence method
C[C@@H](F)c1nc(NC(=O)C2CC2)nc(N[C@@H]2CCCc3ccccc32)n1 [Compound 2.68] | very good herbicidal action
Cc1ccc2c(c1)C(Nc1ncnc(NC(=O)C3CC3)n1)C(C)C2 (stereo not shown) [Compound 2.75] | very good herbicidal action
Cc1ccc2c(c1)C(Nc1nc(NC(=S)NC(C)(C)C)nc(C(C)F)n1)C(C)C2 (stereo not shown) [Compound 2.76] | very good herbicidal action
Cc1ccc2c(c1)C(Nc1nc(NC(=O)NC(C)C)nc(C(C)F)n1)C(C)C2 (stereo not shown) [Compound 2.78] | very good herbicidal action
CCCCNC(=O)Nc1nc(NC2c3cc(C)ccc3CC2C)nc(C(C)F)n1 (stereo not shown) [Compound 2.87] | very good herbicidal action
CCCCCCNC(=O)Nc1nc(NC2c3cc(C)ccc3CC2C)nc(C(C)F)n1 (stereo not shown) [Compound 2.88] | very good herbicidal action
Cc1ccc2c(c1)C(Nc1nc(NC(=O)NC3CCCC3)nc(C(C)F)n1)C(C)C2 (stereo not shown) [Compound 2.101] | very good herbicidal action
Cc1ccc2c(c1)C(Nc1nc(NC(=O)NCc3ccccc3)nc(C(C)F)n1)C(C)C2 (stereo not shown) [Compound 2.103] | very good herbicidal action
COCCNC(=O)Nc1nc(NC2c3cc(C)ccc3CC2C)nc(C(C)F)n1 (stereo not shown) [Compound 2.104] | very good herbicidal action
COC(C)(C)CNC(=O)Nc1nc(NC2c3cc(C)ccc3CC2C)nc(C(C)F)n1 (stereo not shown) [Compound 2.105] | very good herbicidal action
CCOC(CNC(=O)Nc1nc(NC2c3cc(C)ccc3CC2C)nc(C(C)F)n1)OCC (stereo not shown) [Compound 2.106] | very good herbicidal action
CCOC(=O)CNC(=O)Nc1nc(NC2c3cc(C)ccc3CC2C)nc(C(C)F)n1 (stereo not shown) [Compound 2.111] | very good herbicidal action
COC(C)(C)CNC(=S)Nc1nc(NC2c3cc(C)ccc3CC2C)nc(C(C)F)n1 (stereo not shown) [Compound 2.114] | very good herbicidal action
Cc1ccc2c(c1)C(Nc1nc(NC(=O)Nc3ccccc3)nc(C(C)F)n1)C(C)C2 (stereo not shown) [Compound 2.115] | very good herbicidal action
Cc1ccc(NC(=O)Nc2nc(NC3c4cc(C)ccc4CC3C)nc(C(C)F)n2)cc1 (stereo not shown) [Compound 2.116] | very good herbicidal action
Cc1ccc2c(c1)C(Nc1nc(NC(=O)Nc3ccc(F)cc3)nc(C(C)F)n1)C(C)C2 (stereo not shown) [Compound 2.117] | very good herbicidal action
COc1ccc(NC(=O)Nc2nc(NC3c4cc(C)ccc4CC3C)nc(C(C)F)n2)cc1 (stereo not shown) [Compound 2.122] | very good herbicidal action
Cc1ccc2c(c1)C(Nc1nc(NC(=S)Nc3ccccc3)nc(C(C)F)n1)C(C)C2 (stereo not shown) [Compound 2.127] | very good herbicidal action

SMILES | herbicidal action against harmful plants in the post-emergence method
Cc1ccc(NC(=S)Nc2nc(NC3c4cc(C)ccc4CC3C)nc(C(C)F)n2)cc1 (stereo not shown) [Compound 2.128] | very good herbicidal action
Cc1ccc2c(c1)C(Nc1nc(NC(=S)Nc3ccc(F)cc3)nc(C(C)F)n1)C(C)C2 (stereo not shown) [Compound 2.129] | very good herbicidal action
COc1ccc(NC(=S)Nc2nc(NC3c4cc(C)ccc4CC3C)nc(C(C)F)n2)cc1 (stereo not shown) [Compound 2.130] | very good herbicidal action
Cc1ccc2c(c1)C(Nc1nc(NC(=S)NCc3ccccc3)nc(C(C)F)n1)C(C)C2 (stereo not shown) [Compound 2.131] | very good herbicidal action
CCCCNC(=S)Nc1nc(N[C@H]2c3cc(C)ccc3C[C@@H]2C)nc([C@@H](C)F)n1 [Compound 2.132] | very good herbicidal action
CCNC(=S)Nc1nc(N[C@H]2c3cc(C)ccc3C[C@@H]2C)nc([C@@H](C)F)n1 [Compound 2.133] | very good herbicidal action
Cc1ccc2c(c1)[C@H](Nc1nc(NC(=S)NCCc3ccc(Cl)cc3)nc([C@@H](C)F)n1)[C@@H](C)C2 [Compound 2.134] | very good herbicidal action
Cc1ccc2c(c1)[C@H](Nc1nc(NC(=S)NCc3ccco3)nc([C@@H](C)F)n1)[C@@H](C)C2 [Compound 2.138] | very good herbicidal action
Cc1ccc2c(c1)[C@H](Nc1nc(NC(=S)NC3CCCCC3)nc([C@@H](C)F)n1)[C@@H](C)C2 [Compound 2.139] | very good herbicidal action
COc1cccc(NC(=O)Nc2nc(N[C@H]3c4cc(C)ccc4C[C@@H]3C)nc([C@@H](C)F)n2)c1 [Compound 2.140] | very good herbicidal action
CC(=O)Nc1nc(N[C@H]2c3cc(C)ccc3C[C@@H]2C)nc(C(F)F)n1 [Compound 2.149] | very good herbicidal action
CCC(=O)Nc1nc(N[C@H]2c3cc(C)ccc3C[C@@H]2C)nc(C(F)F)n1 [Compound 2.150] | very good herbicidal action
Cc1ccc2c(c1)[C@H](Nc1nc(NC(=O)C(C)(C)C)nc(C(F)F)n1)[C@@H](C)C2 [Compound 2.151] | very good herbicidal action
Cc1ccc2c(c1)[C@H](Nc1nc(N=CN(C)C)nc([C@@H](C)F)n1)[C@@H](C)C2 [Compound 2.153] | very good herbicidal action
C[C@@H](F)c1nc(N=CN(C)C)nc(N[C@@H]2CCCc3ccccc32)n1 [Compound 2.154] | very good herbicidal action
Cc1ccc2c(c1)[C@H](Nc1ncnc(N=CN(C)C)n1)[C@@H](C)C2 [Compound 2.155] | very good herbicidal action
CC(=Nc1nc(N[C@H]2c3cc(C)ccc3C[C@@H]2C)nc([C@@H](C)F)n1)N(C)C [Compound 2.156] | very good herbicidal action
